Among the data in DBAASP are MIC values, retold here.

Values after ≈ are worked out from the molar mass of the structure shown.

Some test systems named below: Bacillus cereus; Escherichia coli; Leuconostoc lactis; Listeria innocua; Micrococcus luteus; Pasteurella multocida; Staphylococcus aureus; Streptococcus uberis; Enterobacter cloacae; Enterococcus faecalis; Pseudomonas aeruginosa; Acinetobacter baumannii; Staphylococcus aureus MR; Escherichia coli UB1005.
What all share (assay): ≥ marks a high value that may be exact or a test limit, other limits are often not marked, values filed in µg/mL are converted to µM
Assay [1] deals with Staphylococcus epidermidis.
Assay [2] has as its system Staphylococcus aureus ATCC 25923.
For assay [3], the system named is Staphylococcus aureus ATCC 29213.
For assay [4], the system named is Acinetobacter baumannii ATCC 19606.
Assay [5] deals with Candida albicans ATCC 90028.
For assay [6], the system named is Escherichia coli ATCC 25922.
Assay [7] concerns Pseudomonas aeruginosa ATCC 27853.
The subject of assay [8] is Bacillus subtilis CMCC 63501.
For assay [9], the system named is Enterococcus faecalis ATCC 29212.
For assay [10], the system named is Salmonella enterica subsp. enterica serovar Pullorum C79-13.
Assay [11] has as its system Salmonella enterica subsp. enterica serovar Typhimurium ATCC 14028.
In assay [12] the test system is Staphylococcus epidermidis ATCC 12228.

As to `CC[C@H](C)[C@H](NC(=O)[C@@H](NC(=O)[C@H](CO)NC(=O)[C@H](C)NC(=O)[C@@H](NC(=O)[C@H](CCCCN)NC(=O)[C@H](CCCCN)NC(=O)[C@@H](NC(=O)[C@@H](NC(=O)[C@H](CC(=O)O)NC(=O)[C@H](C)NC(=O)[C@H](CC(C)C)NC(=O)CN)C(C)C)[C@@H](C)CC)C(C)C)C(C)C)C(=O)NCC(=O)NCC(=O)N[C@@H](CC(C)C)C(N)=O` [GLADVIKKVASVIGGL], the MIC against Bacillus cereus is not below 32.5 µM; against Escherichia coli it was more than 64.9 µM; against Leuconostoc lactis, not below 64.9 µM; against Listeria innocua, not below 64.9 µM; in the assay with Micrococcus luteus it was not below 32.5 µM; with Pasteurella multocida, not below 64.9 µM. The values for the MIC (in the assay on Staphylococcus aureus; in assay [1]; in the assay on Streptococcus uberis) were 64.9 µM (≈ 99.9 µg/mL), not below 64.9 µM and not below 64.9 µM, respectively.

For the compound `CC[C@H](C)[C@H](NC(=O)[C@@H](NC(=O)[C@H](C)NC(=O)[C@H](Cc1ccccc1)NC(=O)[C@H](CC(C)C)NC(=O)CN)C(C)C)C(=O)N[C@@H](CCCCN)C(=O)N[C@@H](CCCCN)C(=O)N[C@H](C(=O)N[C@@H](C)C(=O)N[C@@H](CCCCN)C(=O)N[C@H](C(=O)N[C@H](C(=O)N[C@@H](CCCCN)C(=O)N[C@@H](CCCCN)C(=O)N[C@@H](CC(C)C)C(N)=O)[C@@H](C)CC)C(C)C)C(C)C` [GLFAVIKKVAKVIKKL], the MIC against Bacillus cereus is 14.2 µM (≈ 25 µg/mL); in the assay with Escherichia coli, more than 57 µM; against Leuconostoc lactis it was 1.71 µM (≈ 3 µg/mL); with Listeria innocua it was not below 57 µM; with Micrococcus luteus, 14.2 µM (≈ 25 µg/mL); against Pasteurella multocida, not below 57 µM. Further, the results for the MIC (in the assay on Staphylococcus aureus; in assay [1]; in the assay with Streptococcus uberis) were 14.2 µM (≈ 25 µg/mL), 6.84 µM (≈ 12 µg/mL) and 28.5 µM (≈ 50 µg/mL), respectively.

On to `CC[C@H](C)[C@H](NC(=O)[C@@H](NC(=O)[C@H](CO)NC(=O)[C@H](C)NC(=O)[C@@H](NC(=O)[C@H](CCCCN)NC(=O)[C@H](C)NC(=O)[C@@H](NC(=O)[C@@H](NC(=O)[C@H](CC(=O)O)NC(=O)[C@H](Cc1ccccc1)NC(=O)[C@H](CC(C)C)NC(=O)CN)C(C)C)[C@@H](C)CC)C(C)C)C(C)C)C(=O)NCC(=O)NCC(=O)N[C@@H](CC(C)C)C(N)=O` [GLFDVIAKVASVIGGL], for which the MIC is not below 64.1 µM against Bacillus cereus; more than 64.1 µM in the assay with Escherichia coli; 16 µM (≈ 25 µg/mL) in the assay on Leuconostoc lactis; not below 64.1 µM in the assay on Listeria innocua; not below 64.1 µM in the assay with Micrococcus luteus; not below 64.1 µM against Pasteurella multocida. Besides, the figures for the minimum inhibitory concentration (MIC) (in the assay on Staphylococcus aureus; in assay [1]; in the assay on Streptococcus uberis) were 64.1 µM (≈ 99.9 µg/mL), not below 64.1 µM and not below 64.1 µM, respectively.

In the case of `CC[C@H](C)[C@H](NC(=O)[C@H](CCCCN)NC(=O)[C@H](CO)NC(=O)[C@H](C)NC(=O)[C@@H](NC(=O)[C@H](CCCCN)NC(=O)[C@H](CCCCN)NC(=O)[C@@H](NC(=O)[C@@H](NC(=O)[C@H](CC(=O)O)NC(=O)[C@H](Cc1ccccc1)NC(=O)[C@H](CC(C)C)NC(=O)CN)C(C)C)[C@@H](C)CC)C(C)C)C(=O)N[C@@H](CCCCN)C(=O)NCC(=O)N[C@@H](CC(C)C)C(N)=O` [GLFDVIKKVASKIKGL], the MIC is not below 58.3 µM in the assay on Bacillus cereus; more than 58.3 µM with Escherichia coli; 3.5 µM (≈ 6 µg/mL) against Leuconostoc lactis; not below 58.3 µM against Listeria innocua; not below 58.3 µM against Micrococcus luteus; not below 58.3 µM with Pasteurella multocida. Further, the minimal inhibitory concentration (MIC) is more than 58.3 µM in the assay with Staphylococcus aureus, not below 58.3 µM in [1] and not below 58.3 µM in the assay with Streptococcus uberis.

Turning to `CC[C@H](C)[C@H](NC(=O)[C@@H](NC(=O)[C@@H]1CCCN1C(=O)[C@H](C)NC(=O)[C@@H](NC(=O)[C@H](Cc1cnc[nH]1)NC(=O)[C@@H]1CCCN1C(=O)[C@H](CC(C)C)NC(=O)[C@H](CC(C)C)NC(=O)[C@H](Cc1cnc[nH]1)NC(=O)[C@H](CCCCN)NC(=O)[C@H](C)NC(=O)[C@@H](NC(=O)[C@H](CO)NC(=O)CNC(=O)[C@H](CC(C)C)NC(=O)[C@@H](NC(=O)[C@H](CCCCN)NC(=O)[C@H](Cc1ccccc1)NC(=O)[C@H](CC(C)C)NC(=O)CN)C(C)C)C(C)C)C(C)C)[C@@H](C)CC)C(=O)N[C@@H](C)C(=O)N[C@@H](CCC(=O)O)C(=O)N[C@@H](CCCCN)C(=O)N[C@@H](CC(C)C)C(N)=O` [GLFKVLGSVAKHLLPHVAPIIAEKL], the MIC is 18.9 µM (≈ 50 µg/mL) in the assay on Bacillus cereus; not below 37.7 µM in the assay on Enterobacter cloacae; not below 37.7 µM in the assay with Enterococcus faecalis; more than 37.7 µM against Escherichia coli; 1.13 µM (≈ 3 µg/mL) with Leuconostoc lactis; 4.53 µM (≈ 12 µg/mL) in the assay on Listeria innocua. In addition, the minimal inhibitory concentration (MIC) was 9.43 µM (≈ 25 µg/mL) in the assay on Micrococcus luteus; 18.9 µM (≈ 50 µg/mL) in the assay on Pasteurella multocida; more than 37.7 µM with Pseudomonas aeruginosa; 4.53 µM (≈ 12 µg/mL) in assay [2]; 4.53 µM (≈ 12 µg/mL) in assay [3]; 4.53 µM (≈ 12 µg/mL) in assay [1]. Moreover, in the assay with Streptococcus uberis, the MIC worked out at 9.43 µM (≈ 25 µg/mL).

As to `CC[C@H](C)[C@H](NC(=O)[C@H](CCCN=C(N)N)NC(=O)[C@H](CCCCN)NC(=O)[C@@H](NC(=O)[C@@H](NC(=O)[C@H](CCCN=C(N)N)NC(=O)[C@@H](N)CCCCN)[C@@H](C)CC)C(C)C)C(=O)N[C@@H](CCCCN)C(=O)N[C@@H](CC(=O)O)C(=O)N[C@@H](Cc1ccccc1)C(=O)N[C@@H](CC(C)C)C(=O)N[C@@H](CCCN=C(N)N)C(=O)O` [KRIVKRIKDFLR], the MIC in [4] was not below 102 µM; with Acinetobacter baumannii it was not below 50.9 µM; in [5], 2.5 µM (≈ 3.93 µg/mL); in [6] it was 1.25 µM (≈ 1.96 µg/mL); in assay [7], 2.5 µM (≈ 3.93 µg/mL); in assay [2], not below 204 µM. Also, the values for the MIC (in assay [3]; in the assay with Staphylococcus aureus MR) were 2.5 µM (≈ 3.93 µg/mL) and not below 204 µM, respectively.

In the assay on Staphylococcus aureus MR, `CC[C@H](C)[C@H](NC(=O)[C@H](Cc1ccc(O)cc1)NC(=O)[C@H](CCCN=C(N)N)NC(=O)[C@H](CCCCN)NC(=O)[C@H](Cc1ccc(O)cc1)NC(=O)[C@@H](N)CC(C)C)C(=O)N[C@@H](CC(C)C)C(=O)N[C@@H](CCCN=C(N)N)C(=O)N[C@@H](CCCCN)C(=O)N[C@@H](Cc1ccccc1)C(=O)N[C@@H](CCCCN)C(=O)N[C@@H](Cc1ccccc1)C(=O)N[C@@H](CC(C)C)C(=O)N[C@@H](CCCCN)C(=O)N[C@@H](CCCCN)C(=O)N[C@@H](CCCCN)C(=O)N[C@@H](CC(C)C)C(=O)N[C@@H](CCCCN)C(=O)N[C@@H](CCCCN)C(=O)N[C@@H](CCCCN)C(N)=O` [LYKRYILRKFKFLKKKLKKK] had an MIC of 24 µM (≈ 64 µg/mL).

Consider `CC(C)C[C@H](NC(=O)[C@@H](N)CCCN=C(N)N)C(=O)N[C@@H](C)C(=O)N[C@@H](CCCN=C(N)N)C(=O)N[C@@H](CCCN=C(N)N)C(=O)N[C@H](C(=O)N[C@H](C(=O)N[C@@H](CCCN=C(N)N)C(=O)N[C@@H](CCCN=C(N)N)C(=O)N[C@H](C(=O)N[C@@H](C)C(=O)N[C@@H](CCCN=C(N)N)C(N)=O)C(C)C)C(C)C)C(C)C` [RLARRVVRRVAR], for which the minimal inhibitory concentration (MIC) is not below 66.3 µM in the assay with Staphylococcus aureus MR and more than 66.3 µM in the assay on Staphylococcus aureus.

Take `C[C@H](NC(=O)[C@H](C)NC(=O)[C@H](CCCCN)NC(=O)[C@H](C)NC(=O)[C@H](C)NC(=O)[C@H](C)NC(=O)[C@H](CCCCN)NC(=O)[C@H](Cc1ccccc1)NC(=O)[C@@H](N)Cc1c[nH]c2ccccc12)C(=O)N[C@@H](C)C(=O)N[C@@H](CCCCN)C(=O)N[C@@H](Cc1ccccc1)C(=O)N[C@@H](Cc1c[nH]c2ccccc12)C(N)=O` [WFKAAAKAAAKFW]: the minimum inhibitory concentration (MIC) in assay [8] came out at 8 µM (≈ 12 µg/mL); in assay [9], 32 µM (≈ 47.8 µg/mL); in assay [6], 4 µM (≈ 5.98 µg/mL); against Escherichia coli UB1005, 4 µM (≈ 5.98 µg/mL); in assay [7], 16 µM (≈ 23.9 µg/mL); in assay [10], 8 µM (≈ 12 µg/mL). For the same compound, the MIC in assay [11] worked out at 32 µM (≈ 47.8 µg/mL); in assay [3] it was 8 µM (≈ 12 µg/mL); in [12], 16 µM (≈ 23.9 µg/mL).

What is called MIC is the least concentration at which growth counts as inhibited. Low values mean greater potency, high ones weaker potency.
